# In PubChem BioAssay (NCI):
#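 Five compound concentrations were applied to cells in 96-well plates for 48 hours; endpoints were derived by simple linear interpolation of the resulting dose-response curve. GI50 marks 50% less growth. TGI marks complete inhibition of growth.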
# Test system: NCI-H23 lung
# Experiment: NCI tumour cell line growth inhibition, 48 h
Compound,GI50 [µM],TGI [µM]
COc1cccc(NCc2nnc(Nc3ccc(Cl)cc3)c3ccccc23)c1,1.22,6.74
Nc1nccc(-c2c(-c3ccc(F)cc3)ncn2CCCN2CCOCC2)n1,> 25,> 25
Cc1cc(C)cc(Nc2cc(C)nc3nc(C(F)(F)F)nn23)c1,> 100,> 100

# Test system: OVCAR-4 ovarian
# Experiment: NCI tumour cell line growth inhibition, 48 h
Compound,TGI [µM],GI50 [µM]
O=C(c1ccccc1)c1c2ccccn2c2cccc[n+]12,> 100,–
COc1cccc(NCc2nnc(Nc3ccc(Cl)cc3)c3ccccc23)c1,17.6,1.33
Nc1nccc(-c2c(-c3ccc(F)cc3)ncn2CCCN2CCOCC2)n1,> 25,> 25
Cc1cc(C)cc(Nc2cc(C)nc3nc(C(F)(F)F)nn23)c1,> 100,> 100

# Test system: MDA-MB-435
# Experiment: NCI tumour cell line growth inhibition, 48 h
Compound,TGI [µM],GI50 [µM]
O=C(c1ccccc1)c1c2ccccn2c2cccc[n+]12,> 100,–
COc1cccc(NCc2nnc(Nc3ccc(Cl)cc3)c3ccccc23)c1,4.38,0.739
Nc1nccc(-c2c(-c3ccc(F)cc3)ncn2CCCN2CCOCC2)n1,> 25,> 25
Cc1cc(C)cc(Nc2cc(C)nc3nc(C(F)(F)F)nn23)c1,> 100,> 100

# Test system: MCF7 breast
# Experiment: NCI tumour cell line growth inhibition, 48 h
Compound,TGI [µM],GI50 [µM]
O=C(c1ccccc1)c1c2ccccn2c2cccc[n+]12,> 100,–
COc1cccc(NCc2nnc(Nc3ccc(Cl)cc3)c3ccccc23)c1,6.4,0.938
Nc1nccc(-c2c(-c3ccc(F)cc3)ncn2CCCN2CCOCC2)n1,> 25,> 21.6
Cc1cc(C)cc(Nc2cc(C)nc3nc(C(F)(F)F)nn23)c1,> 100,> 100

# Test system: SF-539 CNS
# Experiment: NCI tumour cell line growth inhibition, 48 h
Compound,TGI [µM],GI50 [µM]
O=C(c1ccccc1)c1c2ccccn2c2cccc[n+]12,> 100,–
COc1cccc(NCc2nnc(Nc3ccc(Cl)cc3)c3ccccc23)c1,6.56,3.07
Nc1nccc(-c2c(-c3ccc(F)cc3)ncn2CCCN2CCOCC2)n1,> 25,> 25
Cc1cc(C)cc(Nc2cc(C)nc3nc(C(F)(F)F)nn23)c1,> 100,38.9

# Test system: T-47D breast
# Experiment: NCI tumour cell line growth inhibition, 48 h
Compound,TGI [µM],GI50 [µM]
O=C(c1ccccc1)c1c2ccccn2c2cccc[n+]12,> 100,–
COc1cccc(NCc2nnc(Nc3ccc(Cl)cc3)c3ccccc23)c1,6.56,0.649
Nc1nccc(-c2c(-c3ccc(F)cc3)ncn2CCCN2CCOCC2)n1,> 25,> 25
Cc1cc(C)cc(Nc2cc(C)nc3nc(C(F)(F)F)nn23)c1,> 100,> 100

# Test system: A498 renal
# Experiment: NCI tumour cell line growth inhibition, 48 h
Compound,TGI [µM],GI50 [µM]
O=C(c1ccccc1)c1c2ccccn2c2cccc[n+]12,> 100,–
COc1cccc(NCc2nnc(Nc3ccc(Cl)cc3)c3ccccc23)c1,4.42,1.27
Nc1nccc(-c2c(-c3ccc(F)cc3)ncn2CCCN2CCOCC2)n1,> 25,> 19.2
Cc1cc(C)cc(Nc2cc(C)nc3nc(C(F)(F)F)nn23)c1,> 100,29

# Test system: A549 NSCLC
# Experiment: NCI tumour cell line growth inhibition, 48 h
Compound,TGI [µM],GI50 [nM]
O=C(c1ccccc1)c1c2ccccn2c2cccc[n+]12,> 100,–
COc1cccc(NCc2nnc(Nc3ccc(Cl)cc3)c3ccccc23)c1,9.42,1930
Nc1nccc(-c2c(-c3ccc(F)cc3)ncn2CCCN2CCOCC2)n1,> 25,> 25000

# Test system: MOLT-4 leukemia
# Experiment: NCI tumour cell line growth inhibition, 48 h
Compound,TGI [µM],GI50 [µM]
O=C(c1ccccc1)c1c2ccccn2c2cccc[n+]12,> 100,–
COc1cccc(NCc2nnc(Nc3ccc(Cl)cc3)c3ccccc23)c1,7.57,1.1
Nc1nccc(-c2c(-c3ccc(F)cc3)ncn2CCCN2CCOCC2)n1,> 25,> 25
Cc1cc(C)cc(Nc2cc(C)nc3nc(C(F)(F)F)nn23)c1,> 100,> 100

# Test system: MALME-3M melanoma
# Experiment: NCI tumour cell line growth inhibition, 48 h
Compound,TGI [µM],GI50 [µM]
O=C(c1ccccc1)c1c2ccccn2c2cccc[n+]12,> 100,–
COc1cccc(NCc2nnc(Nc3ccc(Cl)cc3)c3ccccc23)c1,6.23,1.22
Nc1nccc(-c2c(-c3ccc(F)cc3)ncn2CCCN2CCOCC2)n1,> 25,> 25
Cc1cc(C)cc(Nc2cc(C)nc3nc(C(F)(F)F)nn23)c1,> 100,> 100

# Test system: SNB-75 CNS
# Experiment: NCI tumour cell line growth inhibition, 48 h
Compound,TGI [µM],GI50 [µM]
O=C(c1ccccc1)c1c2ccccn2c2cccc[n+]12,> 100,–
COc1cccc(NCc2nnc(Nc3ccc(Cl)cc3)c3ccccc23)c1,5.27,0.293
Nc1nccc(-c2c(-c3ccc(F)cc3)ncn2CCCN2CCOCC2)n1,> 25,> 25
Cc1cc(C)cc(Nc2cc(C)nc3nc(C(F)(F)F)nn23)c1,> 100,25.2

# Test system: LOX IMVI melanoma
# Experiment: NCI tumour cell line growth inhibition, 48 h
Compound,TGI [µM],GI50 [µM]
O=C(c1ccccc1)c1c2ccccn2c2cccc[n+]12,> 100,–
COc1cccc(NCc2nnc(Nc3ccc(Cl)cc3)c3ccccc23)c1,4.84,1.11
Nc1nccc(-c2c(-c3ccc(F)cc3)ncn2CCCN2CCOCC2)n1,> 25,> 25
Cc1cc(C)cc(Nc2cc(C)nc3nc(C(F)(F)F)nn23)c1,> 100,> 100

# Test system: NCI/ADR-RES ovarian
# Experiment: NCI tumour cell line growth inhibition, 48 h
Compound,TGI [µM],GI50 [µM]
O=C(c1ccccc1)c1c2ccccn2c2cccc[n+]12,> 100,–
COc1cccc(NCc2nnc(Nc3ccc(Cl)cc3)c3ccccc23)c1,25,2.55
Nc1nccc(-c2c(-c3ccc(F)cc3)ncn2CCCN2CCOCC2)n1,> 25,> 25
Cc1cc(C)cc(Nc2cc(C)nc3nc(C(F)(F)F)nn23)c1,> 100,> 100

# Test system: SW-620 colon
# Experiment: NCI tumour cell line growth inhibition, 48 h
Compound,TGI [µM],GI50 [µM]
O=C(c1ccccc1)c1c2ccccn2c2cccc[n+]12,> 100,–
COc1cccc(NCc2nnc(Nc3ccc(Cl)cc3)c3ccccc23)c1,8.13,2.98
Nc1nccc(-c2c(-c3ccc(F)cc3)ncn2CCCN2CCOCC2)n1,> 25,> 25
Cc1cc(C)cc(Nc2cc(C)nc3nc(C(F)(F)F)nn23)c1,> 100,> 100

# Test system: 786-0 renal
# Experiment: NCI tumour cell line growth inhibition, 48 h
row,Compound,TGI [µM]
1,O=C(c1ccccc1)c1c2ccccn2c2cccc[n+]12,> 100
